Test results published in patent US20190091177A1, “METHOD OF TREATING SELECTED PATIENT POPULATION EXPERIENCING DRAVET SYNDROME” (ZOGENIX INTERNATIONAL LIMITED, priority 2017, published 2019).
Like-named read-outs stand apart in the source and are kept apart here.

What was measured:
[1] = test system: patients with Dravet syndrome; experiment: Study 1: Phase 3 randomized, double blind, placebo controlled study (ZX008-1501/ZX008-1502) of liquid fenfluramine formulation as adjunctive therapy; type: in vivo, human
Procedure: The first 119 subjects to be randomized in both identical studies combined were analyzed and reported as Study 1 (FIG. 1), covered by a Statistical Analysis Plan (SAP).
Primary and key secondary endpoints in the Study 1 SAP were pre-determined. All patients were treated twice per day over a period of 14 weeks using an oral syringe to administer the formulation. The treatment period included a two-week titration period and a 12-week maintenance period.
The initial results of Study 1 are outlined below. The randomized, double blind, placebo controlled, Phase 3 study enrolled 119 patients across sites in the United States, Canada, Europe and Australia. The median age of patients was 8 years, the mean age of patients was 9 years (range, 2-18 years) (FIG. 2).
Patients were titrated to their target dose over two weeks, and then remained at that fixed dose for 12 weeks. The mean baseline convulsive seizure frequency across the study groups was approximately 40 seizures per month. 110 (92%) patients completed the study (85% 0.8 mg/kg/day; 100% 0.2 mg/kg/day; 93% placebo).
The proportion of patients who achieved ≥75% seizure reductions, a secondary (non-key) efficacy measure, is also presented.
The mean number of convulsive seizure free days, defined as a day for which diary data are available and no convulsive seizures have been reported, was determined for each treatment group during the Baseline and T+M Periods. Using a parametric analysis, comparisons for the ZX008 groups to placebo were estimated from an ANCOVA model with treatment group (3 levels) and age group (<6 years, ≥6 years) as factors, log baseline number of convulsive seizure free days as a covariate and log convulsive seizure free days (Titration+Maintenance, or Maintenance Period) as response. The mean (SD) number of convulsive seizure free days per 28 days during the Baseline Period was 12.6 (7.68), 15.7 (6.80), and 14.6 (7.59) for the placebo, 0.2 and 0.8 mg/kg/day groups, respectively. […]

[2] = test system: patients with Dravet syndrome; conditions: cited from earlier work; for >50% Reduction in Seizures (patients) / Seizure-free Patients: fenfluramine and valproate, average daily dose 0.34 mg/kg/day for 1 to 22 years, 12 patients, 0.34 mg/kg/day
[3] = long-term fenfluramine treatment

CCNC(C)Cc1cccc(C(F)(F)F)c1 (racemic) [Fenfluramine, (RS)-N-ethyl-1-[3-(trifluoromethyl)phenyl]propan-2-amine]
Mean (SD) non-convulsive seizure frequency per 28 days at the end of the T+M Period ([1]; 0.2 mg/kg/day, baseline 193.6 (478.45)): 93.7 (219.69) per 28 days | Reduction from Baseline in non-convulsive seizure frequency (%, [SD]) ([1]; 0.8 mg/kg/day, end of T+M Period): 59.1% (40.14) | Mean (SD) non-convulsive seizure frequency per 28 days at the end of the T+M Period ([1]; 0.8 mg/kg/day, baseline 335.2 (758.58)): 127.9 (297.39) per 28 days | >50% Reduction in Seizures (patients) [2]: 9/12 (75%) | Seizure-free Patients [2]: 8/12 (66%) | >50% Reduction in Seizures (patients) ([2]; listed as fenfluramine): 75% | Seizure-free Patients ([2]; listed as fenfluramine): 66.6% | Echocardiography monitoring for possible heart valve defects [2, 3]: No clinically relevant defects were identified | Effect on types of seizures [2, 3]: effectively reduced the incidence of all types of seizures
